Measured values taken from US8518953B2, “Aminopyrimidines useful as inhibitors of protein kinases” (Vertex Pharmaceuticals Incorporated, priority 2007, dated 2013).

System: E16 rat hippocampal or cortical neurons
Assay: Axonal Branching Assay
Assay type: cell-based
Experimental: Compounds are tested for the ability to enhance axonal branching in E16 rat hippocampal or cortical neurons. 1 mg/ml stock of PDL is diluted into 100 μg/ml in DI water. The glass coverslips are coated for at least 1 hour at 37° C. prior to doing the dissection. PDL is aspirated and the plates are rinsed with PBS and air-dried in hood. Cortical or hippocampal lobes are combined with 9 mL of Base media (Neurobasal+Pen/Strep) and put on ice. 1 mL of 10× trypsin solution is added and the mixture is swirled gently. The tissue is then digested via incubation in a 37° C. waterbath for 20 minutes. After 20 minutes, 10 μl/ml DNase (100 μL DNase) is added and the mixture is incubated for another 5 minutes. The cells are spun at 1000 rpm for 1 minute. The enzyme solution is then removed without removing any of the brain fragments sitting on the bottom. The solid is washed 3 times with Wash media (Neurobasal+10% and Pen/Strep). […] The cells are counted in a hemacytometer and seeded at 5000-10000 cells/well in a 24 well plate with glass coverslip inserts coated with PDL. […] Images are captured at 10× and 20× on an upright microscope and axonal branching is determined by quantification of area under threshold fluorescence of neurofilament Alexa 488 per cell. Dendritic branching is determined by quantification of area under threshold fluorescence of MAP2 Alexa 568 per cell. […]

## Cc1nc(-c2ccccc2Cl)nc(Nc2n[nH]c3ncc(F)cc23)c1C [Compound I-1, N-(2-(2-chlorophenyl)-5,6-dimethylpyrimidin-4-yl)-5-fluoro-1H-pyrazolo[3,4-b]pyridin-3-amine]
10 nM, 7 days
  axonal and dendritic branching: increased axonal and dendritic branching
Concentrations that have been shown to induce β-catenin
  axon growth: axon growth was inhibited
